Measured values from patent US20230346827A1 (priority 2020, published 2023).

System: rats with TGFβ1-induced trabecular meshwork fibrosis
Test: Rodent model of anterior segment fibrosis / ocular hypertension (IC TGFβ1), s.c. LMW-DS 15 mg/kg daily
Format: in vivo, rat
Conditions: day 28
Experimental: Before induction of raised IOP, rats were randomly assigned into two groups (for saline vehicle and LMW-DS treatment). Induction of raised IOP was induced as previously described (Hill LJ, et al. Decorin reduces intraocular pressure and retinal ganglion cell loss in rodents through fibrolysis of the scarred trabecular meshwork. Investigative ophthalmology & visual science. 2015; 56(6): 3743-57). At 0 d, a 15° disposable blade was used to make a self-sealing tunnel through the cornea and this access point was employed for all subsequent twice weekly 3.5 µl IC injections of 5 ng/ml TGFβ1 (Peprotech, London, UK), carried out using sterile glass micropipettes (Harvard Apparatus, Kent, UK) over the 28 d experiment. IOP was also measured twice-weekly (immediately prior to the IC injection) throughout the 28 d experiment. […] At 14 d, rats received either subcutaneous injections of 15 mg/kg LMW-DS (Tikomed AB) or an equivalent saline volume, which continued daily for 14 d. OCT measurements of the RFNL were taken at 28 d as a surrogate for RGC density and ocular tissues from both groups were processed for immunohistochemistry to assess levels of TM fibrosis and RGC survival.
Adult 10 week old) male Sprague Dawley rats (Charles River, Kent, UK) were housed with free access to food and water under a 12 h dark/light cycle. Surgery was performed at the Biomedical Services Unit at the University of Birmingham (UK) in accordance with the Home Office guidelines set out in the 1986 Animal Act (UK) and the ARVO Statement for the Use of Animals in Ophthalmic and Vision Research. Intraocular injections, optical coherence tomography and intraocular pressure measurements were all taken whilst rats were under inhaled anesthesia using between 2% - 5% isofluorane / 98% - 95% O2 (National Vet Supplies, UK). The welfare of all rats was monitored closely at all times.
IOP measurements were obtained using an iCare Tonolab (ICare, Helsinki, Finland) calibrated for rats. IOP was recorded twice weekly between 9 am and 11 am throughout the 28 d experiment to avoid confounding circadian variabilities in IOP. Immediately after induction of anesthesia, six rebound measurements were taken with the tonometer from the central cornea and averaged to give a single reading (mmHg). Each graphical data point represents the mean ± SEM of three readings (6 rebounds) taken from each rat sequentially to ensure accurate measurements.
Retinal nerve fiber layer (RNFL) measurements were taken at 28 d using a Spectralis HRA3 confocal scanning laser ophthalmoscope (Heidelberg Engineering, Heidelberg, Germany). Images were obtained from rats whilst under inhalational anesthesia (as described in the ‘Animals and Surgery’ section above). OCT images were taken of the retina around the optic nerve head and in-built software was used to segment images and quantify the RNFL thickness.
Rats were euthanized by an intraperitoneal injection of sodium pentobarbital (National Veterinary Supplies) on 28 d and intracardially perfused with 4% paraformaldehyde (PFA; TAAB, Aldermaston, UK) in PBS whilst under terminal anesthesia. Eyes were removed and immersion fixed in 4% PFA in PBS for 2 hours at room temperature and then cryoprotected using increasing concentrations of (10%, 20% and 30% sucrose) for 24 hours each at 4° C. […]

## sodium salt of dextran sulfate [LMW-DS]
  fibronectin in the TM (immunoreactive): 40.2 ± 4.0%
  laminin in the TM (immunoreactive): 25.6 ± 3.5%
  retinal nerve fibre layer (RNFL) thickness (OCT): 59.9 ± 1.2 µm
  surviving retinal ganglion cells (RGC): 12.6 ± 0.4 RGC/mm
IC TGFβ1 with SC LMW-DS from day 14
  IOP: 11.4 ± 0.2 mmHg
